Source: US9212168B2 (priority 2011, dated 2015)

Experiments:
HCV genotype 1a replicon = HCV genotype 1a replicon assay (NS3 protease activity readout); format: cell-based, hepatitis C virus; settings: for Genotype 1a: HCV genotype 1a replicon; for EC50: Hepatitis C virus, read-out: Genotype 1a, HCV genotype 1a replicon
Outline: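 Genotype 1a subgenomic replicon cells (APC89, Huh7.5) were treated with compound dose-responses in G418-free medium, 0.5% DMSO final, for 48 or 72 hours at 37° C. Lysate NS3/4a protease activity measured with 15 μM FRET substrate, 20 min at 37° C (ex 340/em 509 nm); EC50 by 4-parameter fit.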

HCV genotype 1b replicon = HCV genotype 1b replicon assay (Renilla luciferase readout); format: cell-based, hepatitis C virus; settings: for Genotype 1b: HCV genotype 1b replicon; for EC50: Hepatitis C virus, read-out: Genotype 1b
Text: Assay 1: HCV Genotype 1b Replicon Assay
The HCV genotype 1b replicon cell line was obtained from Apath LLC (Brooklyn, N.Y.) (APC144; Huh7 cell background). This subgenomic replicon contains the N-terminus of the HCV core protein fused to the neomycin-resistance selectable marker. The EMCV IRES lies downstream and drives expression of humanized Renilla luciferase fused to the non-structural proteins NS3-NS5B. This cell line was used to determine compound potency using the luciferase activity readout as a measurement of compound inhibition of replicon levels.
Cells were grown at 37° C. in a 5% CO2 humidified incubator in DMEM (Invitrogen) with 10% FBS (HyClone), 1×NEAA (Invitrogen), 1× Pen-Strep (Invitrogen), and 500 μg/mL G418 (Invitrogen). On day 1 of the assay, cells were plated at 10,000 cells/well in white 96-well tissue culture plates (Costar) in 200 μL media lacking G418. Four hours later, once the cells have adhered, the media was removed and replaced with media (no G418) containing dose-responses of test compounds. Compounds were initially diluted in DMSO and then diluted another 200× in media to bring the final DMSO concentration down to 0.5%. The cells were incubated with test compounds for 48 hours. At the end of the incubation period, media and compound were removed from the plates and the luciferase activity was determined using Promega Renilla-Glo reagents.
To analyze the data, the luciferase activity was plotted vs. the compound concentration, and EC50 values were determined from a 4-parameter robust fit model with the GraphPad Prism software package (GraphPad Software, Inc., San Diego, Calif.). Results are expressed as the negative decadic logarithm of the EC50 value, pEC50.
Test compounds having a higher pEC50 value in this assay show greater inhibition of HCV genotype 1b replication.

Structure (SMILES) | Genotype 1a (HCV genotype 1a replicon) | Genotype 1b (HCV genotype 1b replicon) | EC50 (HCV genotype 1a replicon) [nM] | EC50 (HCV genotype 1b replicon) [nM]
COC(=O)N[C@H](C(=O)N1C[C@@H](OC)C[C@H]1c1nc(-c2ccc(-c3cc(Cl)c(NC(=O)c4ccc(N5C[C@H](C)N(C(=O)[C@H]6CC6(C)C)C[C@H]5C)nc4)cc3OC(F)(F)F)cc2)c[nH]1)C1CCOCC1 [Example 28-6] | D (D represents pEC50>10 (EC50<0.1 nM)) | D (D represents pEC50>10 (EC50<0.1 nM)) | – | –
COC(=O)N[C@H](C(=O)N1C[C@@H](C)C[C@H]1c1nc(-c2ccc(-c3cc(Cl)c(NC(=O)c4ccc(N5CCN(C(=O)C(C)(C)C)C[C@H]5C)nc4)cc3C(F)(F)F)cc2)c[nH]1)C1CCOCC1 [Example 19-2] | D (D represents pEC50>10 (EC50<0.1 nM)) | D (D represents pEC50>10 (EC50<0.1 nM)) | – | –
COC(=O)N[C@H](C(=O)N1C[C@@H](C)C[C@H]1c1nc(-c2ccc(-c3ccc(C(=O)Nc4ccc(N5C[C@H](C)N(C(=O)[C@@]6(O)CC6(C)C)C[C@H]5C)nc4)cc3OC(F)(F)F)cc2)c(Cl)[nH]1)C(C)C [Example 4-37] | D (D represents pEC50>10 (EC50<0.1 nM)) | D (D represents pEC50>10 (EC50<0.1 nM)) | – | –
COC(=O)N[C@H](C(=O)N1C[C@@H](C)C[C@H]1c1nc(-c2ccc(-c3cc(F)c(NC(=O)c4ccc(N5CCN(C(=O)C(C)(C)CO)C[C@H]5C)nc4)cc3OC(F)(F)F)cc2)c[nH]1)C(C)C [Example 1-101] | D (D represents pEC50>10 (EC50<0.1 nM)) | D (D represents pEC50>10 (EC50<0.1 nM)) | – | –
COC(=O)NC(C(=O)N1C[C@@H](C)C[C@H]1c1nc(-c2ccc(-c3cc(Cl)c(NC(=O)c4ccc(N5CCN(C(=O)C(C)(C)C)C[C@H]5C)nc4)cc3OC(F)(F)F)cc2)c[nH]1)C1CCCOC1 (stereo partly shown) [Example 13-38] | – | – | < 0.1 | < 0.1
CNC(=O)N1CCN(c2ccc(C(=O)Nc3cc(C(F)(F)F)c(-c4ccc(-c5c[nH]c([C@@H]6C[C@H](C)CN6C(=O)[C@@H](NC(=O)OC)C(C)C)n5)cc4)cc3F)cn2)[C@H](C)C1 [Example 1-9] | D (D represents pEC50>10 (EC50<0.1 nM)) | D (D represents pEC50>10 (EC50<0.1 nM)) | – | –
COC(=O)NC(C(=O)N1CC(C)CC1c1nc(-c2ccc(-c3ccc(NC(=O)c4ccc(N5CCN(C(=O)C(C)(C)C)CC5C)nc4)cc3OC(F)(F)F)cc2)c[nH]1)C1CCOCC1 (stereo not shown) [Example 13-12] | D (D represents pEC50>10 (EC50<0.1 nM)) | D (D represents pEC50>10 (EC50<0.1 nM)) | – | –
COC(=O)N[C@H](C(=O)N1C[C@@H](OC)C[C@H]1c1nc(-c2ccc(-c3cc(Cl)c(NC(=O)c4ccc(N5CCN(C(=O)C(C)(C)C)C[C@H]5C)nc4)cc3OC(F)(F)F)cc2)c[nH]1)[C@H](C)O [Example 16-2] | D (D represents pEC50>10 (EC50<0.1 nM)) | D (D represents pEC50>10 (EC50<0.1 nM)) | – | –
COC(=O)N[C@H](C(=O)N1C[C@@H](C)C[C@H]1c1nc(-c2ccc(-c3ccc(C(=O)Nc4ccc(N5CCN(C(=O)[C@H]6CC6(C)C)C[C@H]5C)nc4)cc3)cc2)c[nH]1)C(C)C [Example 4-1] | D (D represents pEC50>10 (EC50<0.1 nM)) | D (D represents pEC50>10 (EC50<0.1 nM)) | – | –
COC(=O)N[C@H](C(=O)N1C[C@@H](C)C[C@H]1c1nc(-c2ccc(-c3cc(F)c(NC(=O)c4ccc(N5CCN(C(=O)C(C)(C)CO)C[C@H]5C)nc4)cc3OC(F)(F)F)cc2)c[nH]1)C1CCOCC1 [Example 13-27] | – | – | < 0.1 | < 0.1
COC(=O)N[C@H](C(=O)N1C[C@@H](N(C)C)C[C@H]1c1nc(-c2ccc(-c3ccc(NC(=O)c4ccc(N5CCN(C(=O)[C@]6(C)CCCN6C(C)=O)C[C@H]5C)nc4)cc3)cc2)c[nH]1)C(C)C [Example 2-2] | C (C represents pEC50 between and 9 and about 10, (EC50 between 1 nM and 0.1 nM)) | C (C represents pEC50 between and 9 and about 10, (EC50 between 1 nM and 0.1 nM)) | – | –
COC(=O)N[C@H](C(=O)N1C[C@@H](C)C[C@H]1c1nc(-c2ccc(-c3cc(Cl)c(NC(=O)c4ccc(N5C[C@H](C)N(C(=O)[C@H]6CC6(C)C)C[C@H]5C)nc4)cc3C(F)(F)F)cc2)c[nH]1)C(C)C [Example 1-11] | D (D represents pEC50>10 (EC50<0.1 nM)) | D (D represents pEC50>10 (EC50<0.1 nM)) | – | –
COC(=O)NC(C(=O)N1CC(C)CC1c1nc(-c2ccc(-c3ccc(NC(=O)c4ccc(N5CCN(C(=O)C(C)(C)CO)CC5C)nc4)cc3OC(F)(F)F)cc2)c[nH]1)C(C)O (stereo not shown) [Example 13-30] | D (D represents pEC50>10 (EC50<0.1 nM)) | D (D represents pEC50>10 (EC50<0.1 nM)) | – | –
COC(=O)NC(C(=O)N1CC(C)CC1c1nc(-c2ccc(-c3ccc(NC(=O)c4ccc(N5CCN(C(=O)C(C)(C)CO)CC5C)nc4)cc3OC(F)(F)F)cc2)c[nH]1)C(C)OC (stereo not shown) [Example 13-31] | D (D represents pEC50>10 (EC50<0.1 nM)) | D (D represents pEC50>10 (EC50<0.1 nM)) | – | –
COC(=O)N[C@H](C(=O)N1C[C@@H](C)C[C@H]1c1nc(-c2ccc(-c3cc(Cl)c(NC(=O)c4ccc(N5CCN(C(=O)C(C)(C)CO)C[C@H]5C)nc4)cc3OC(F)(F)F)cc2)c[nH]1)C(C)C [Example 12-8] | – | – | < 0.1 | < 0.1
COC(=O)N[C@H](C(=O)N1C[C@@H](OC)C[C@H]1c1nc(-c2ccc(-c3cc(Cl)c(NC(=O)c4ccc(N5C[C@H](C)N(C(=O)[C@]6(C)CCCN6C(=O)CN(C)C)C[C@H]5C)nc4)cc3OC(F)(F)F)cc2)c[nH]1)C1CCOCC1 [Example 28-19] | C (C represents pEC50 between and 9 and about 10, (EC50 between 1 nM and 0.1 nM)) | D (D represents pEC50>10 (EC50<0.1 nM)) | – | –
COC(=O)NC(C(=O)N1C(C)CCC1c1nc(-c2ccc(-c3cc(Cl)c(NC(=O)c4ccc(N5CCN(C(=O)C6CC6(C)C)CC5C)nc4)cc3OC(F)(F)F)cc2)c[nH]1)C(C)C (stereo not shown) [Example 17-4] | D (D represents pEC50>10 (EC50<0.1 nM)) | D (D represents pEC50>10 (EC50<0.1 nM)) | – | –
COC(=O)NC(C(=O)N1CC(OC)CC1c1nc(-c2ccc(-c3cc(Cl)c(NC(=O)c4ccc(N5CCN(C(=O)C(C)(C)CO)CC5C)nc4)cc3OC(F)(F)F)cc2)c[nH]1)C(C)O (stereo not shown) [Example 16-7] | D (D represents pEC50>10 (EC50<0.1 nM)) | D (D represents pEC50>10 (EC50<0.1 nM)) | – | –
CNC(=O)N1CCC[C@@H]1C(=O)N1C[C@@H](C)N(c2ccc(NC(=O)c3ccc(-c4ccc(-c5c[nH]c([C@@H]6C[C@H](C)CN6C(=O)[C@@H](NC(=O)OC)C(C)C)n5)cc4)c(OC(F)(F)F)c3)cn2)C[C@@H]1C [Example 4-19] | D (D represents pEC50>10 (EC50<0.1 nM)) | D (D represents pEC50>10 (EC50<0.1 nM)) | – | –
COC(=O)N[C@H](C(=O)N1C[C@@H](C)C[C@H]1c1nc(-c2ccc(-c3cc(Cl)c(NC(=O)c4ccc(N5CCN(C(=O)C(C)(C)C)C[C@H]5C)nc4)cc3OC(F)(F)F)cc2)c[nH]1)C1C[C@@H](C)O[C@@H](C)C1 (stereo partly shown) [Example 13-42] | – | – | < 0.1 | < 0.1
COC(=O)N[C@H](C(=O)N1C[C@@H](C)C[C@H]1c1nc(-c2ccc(-c3cc(Cl)c(C(=O)Nc4ccc(N5CCN(C(=O)C(C)(C)C)C[C@H]5C)nc4)cc3OC(F)(F)F)cc2)c(Cl)[nH]1)C1CCOCC1 [Example 22-7] | – | – | < 0.1 | < 0.1
COC(=O)N[C@H](C(=O)N1C[C@@H](C)C[C@H]1c1nc(-c2ccc(-c3ccc(C(=O)Nc4ccc(N5C[C@H](C)N(C(=O)C6CC6)C[C@H]5C)nc4)cc3OC(F)(F)F)cc2)c(Cl)[nH]1)C(C)C [Example 4-11] | D (D represents pEC50>10 (EC50<0.1 nM)) | D (D represents pEC50>10 (EC50<0.1 nM)) | – | –
COC(=O)N[C@H](C(=O)N1C[C@@H](O)C[C@H]1c1nc(-c2ccc(-c3ccc(NC(=O)c4ccc(N5CCN(C(=O)[C@]6(C)CCCN6C(=O)OC)C[C@H]5C)nc4)cc3)cc2)c[nH]1)C(C)C [Example 5] | – | – | 0.1 to 1 | < 0.1
COC(=O)N[C@H](C(=O)N1C[C@@H](C)C[C@H]1c1nc(-c2ccc(-c3cc(Cl)c(NC(=O)c4ccc(N5CCN(C(=O)C(C)(C)CO)C[C@H]5C)nc4)cc3OC(F)(F)F)cc2)c[nH]1)C(C)(C)O [Example 13-16] | – | – | < 0.1 | < 0.1
COC(=O)NC(C(=O)N1CC(C)CC1c1nc(-c2ccc(-c3ccc(NC(=O)c4ccc(N5CCN(C(=O)C(C)(C)CO)CC5C)nc4)cc3OC(F)(F)F)cc2)c[nH]1)C(C)C (stereo not shown) [Example 13-29] | D (D represents pEC50>10 (EC50<0.1 nM)) | D (D represents pEC50>10 (EC50<0.1 nM)) | – | –
COC(=O)N[C@H](C(=O)N1C[C@@H](OC)C[C@H]1c1nc(-c2ccc(-c3ccc(NC(=O)c4ccc(N5CCN(C(=O)C(C)(C)C)C[C@H]5C)nc4)cc3OC(F)(F)F)cc2)c[nH]1)C(C)C [Example 27-8] | D (D represents pEC50>10 (EC50<0.1 nM)) | D (D represents pEC50>10 (EC50<0.1 nM)) | – | –
